What was measured:
Caco-2 cells [1] = test system: Caco-2 cells
Caco-2 cells [2] = details: cited from earlier work

## COc1nc2ccc(Br)cc2cc1[C@@H](c1ccccc1)[C@@](O)(CCN(C)C)c1cccc2ccccc12 [Bedaquiline]
Caco-2 cells [1]
  absorption: increased
  efflux ratio (Papp B-A/Papp A-B): decreasing the efflux ratio
Caco-2 cells [2]
  P-gp substrate status: known P-gp substrate

From patent US20210100786A1, “Pharmaceutical Formulations” (CIPLA LIMITED, priority 2018, published 2021)
